Values quoted from earlier work in publication PMC6260473 (Saudi Pharmaceutical Journal : SPJ, 2018).

System: human colorectal adenocarcinoma cell lined HT29
Settings: read-out: IC50, cytotoxic effect, ref Nowak et al., 2014

Structure (SMILES)	IC50
COc1ccc(Cn2cnc3c(cc(N4CCOCC4)c4ccccc43)c2=O)cc1 [3-(4-methoxybenzyl)-6-(morpholin-4-yl)benzo[h]quinazolin-4(3H)-one]	4.12 µM
N.N.[Cl][Pt][Cl] [cisplatin]	8.47 µM
